According to patent US11414489B2, “Combination therapy with a hyaluronan-degrading enzyme and an immune checkpoint inhibitor” (HALOZYME, INC., priority 2014, dated 2022):

Columns and labels:
[1] = tested on: parental MH194+PSC4 syngeneic tumors; test: Tumor growth in parental MH194+PSC4 syngeneic tumor mouse model (tumor volume, TGI); format: in vivo, C57BL/6 mice; settings: for Tumor volume, Day 0: Day 0 (baseline); for Tumor volume, Day 0 / Tumor volume, Day 3 / Tumor volume, Day 7 / Tumor volume, Day 10 / Tumor volume, Day 14 / Tumor volume, Day 17 / Tumor volume, Day 21: mean ± SEM; for TGI (tumor growth inhibition): last day vs vehicle
Method: MH194 mouse pancreatic carcinoma cells (derived from the KrasLSL.G12D/+p53R172H/+PdxCretg/+ genetically engineered mouse model) were engineered to constitutively express human hyaluronan synthase 3 (HAS3) as in Example 1A. Stably transduced cells, designated MH194/HAS3 cells, were selected by hygromycin treatment. MH194/HAS3 and parental MH194 cells were maintained in tissue culture as an adherent monolayer in DMEM medium supplemented with 2 mM L-glutamine and 10% fetal bovine serum at 37° C. and 5% CO2.
Pancreas from C57BL/6 mice were minced with razor blades and placed in 2 mL of a digestion buffer containing 0.05% collagenase P, 0.1% DNAse, and 0.02% Pronase in Gey's balanced salt solution (GBSS). Following two […] digestion incubations at 37° C. with thorough mixing after each incubation, the resulting cell suspension was filtered through a 100 μm nylon mesh, washed twice in GBSS with 0.3% bovine serum albumin (BSA), and resuspended in 10 mL GBSS/BSA. Eight mL of Histodenz (Sigma, Cat. No. D2158) was added to the cell suspension, and the entire volume was pipetted under 6 mL GBSS/BSA in order to generate a discontinuous density gradient. Following centrifugation for 20 min at 1,400 g with the brake set at zero, the desired cells were harvested from the interface between the two density volumes and washed once with PBS and once with DMEM medium supplemented with 2 mM L-glutamine, 10% fetal bovine serum, and 1% amphotericin-B (complete DMEM). Cells were immortalized using Lenti-SV40 (Capital Biosciences, Cat. No. CIP-0011) using manufacturer's protocol. The resulting cell line, designated PSC4, were maintained in tissue culture as an adherent monolayer in complete DMEM at 37° C. and 5% CO2.
MH194/HAS3 cells as described in part A above were trypsin-harvested at 80-90% confluency, washed twice with sterile Hanks Balanced Salt Solution (HBSS), and diluted with HBSS to a concentration of 4×10^6 cells/mL. Male C57BL/6 mice were obtained at 4-6 weeks from Taconic Farms and housed 4/cage. For tumor inoculations, mice were injected with 50 μL of cell suspension containing 2×10^5 MH194/HAS3 cells or parental MH194 cells along with 5×10^5 PSC4 (7×10^5 cells total) intramuscularly, adjacent to the right tibial periosteum.
Tumor volumes were measured by ultrasound as in Example 1A2. Approximately 15-30 frames out of 150-200 frames were analyzed and a tumor volume calculated and expressed in mm^3. When using the HA quantitation procedure described in Example 1A3, tumors grown from parental MH194+PSC4 cells contained 263±16 ng HA/mg tissue, whereas tumors grown from MH194/HAS3+PSC4 cells contained 1783±99 ng HA/mg tissue.
Mice containing parental MH194+PSC4 syngeneic tumors generated as described in Example 1C, with a mean tumor volume of 131±26 mm^3, were randomized into treatment groups, each containing 6 mice, such that the mean tumor volume of each group were substantially the same. Dexamethasone or saline (0.9% sodium chloride for injection) were administered intraperitoneally (IP) on days 0, 3, 7, 10, 14, and 17, and anti-PD-1 (BioXCell Inc, clone RMP1-14, Cat. No. BE0146) or saline were administered intraperitoneally (IP) on days 1, 4, 8, 11, 15, and 18, all at the dose levels indicated in Table 27. Tumor volumes were measured on days 0, 3, 7, 10, 14, 17, and 21. The middle dexamethasone dose level (3 mg/kg) was selected to approximate the human dose equivalent for clinical trials in which PEGPH20 is administered with dexamethasone to alleviate musculoskeletal discomfort.

[2] = glucocorticoid administration; route (IV or PO); cited from earlier work
[3] = Dex 1 mg/kg IP 24 h prior to saline or α-PD-1 4 mg/kg IP
[4] = Dex 3 mg/kg IP 24 h prior to saline or α-PD-1 4 mg/kg IP
[5] = Dex 5 mg/kg IP 24 h prior to saline or α-PD-1 4 mg/kg IP

C[C@@H]1C[C@H]2[C@@H]3CCC4=CC(=O)C=C[C@]4(C)[C@@]3(F)[C@@H](O)C[C@]2(C)[C@@]1(O)C(=O)CO [Dex]
Tumor volume, Day 0 [1, 3]: 133 ± 8 mm^3 | Tumor volume, Day 0 [1, 4]: 133 ± 9 mm^3 | Tumor volume, Day 0 [1, 5]: 125 ± 10 mm^3 | Tumor volume, Day 3 [1, 3]: 240 ± 19 mm^3 | Tumor volume, Day 3 [1, 4]: 253 ± 17 mm^3 | Tumor volume, Day 3 [1, 5]: 251 ± 22 mm^3 | Tumor volume, Day 7 [1, 3]: 374 ± 39 mm^3 | Tumor volume, Day 7 [1, 4]: 436 ± 23 mm^3 | Tumor volume, Day 7 [1, 5]: 390 ± 46 mm^3 | Tumor volume, Day 10 [1, 3]: 581 ± 50 mm^3 | Tumor volume, Day 10 [1, 4]: 553 ± 63 mm^3 | Tumor volume, Day 10 [1, 5]: 462 ± 46 mm^3 | Tumor volume, Day 14 [1, 3]: 904 ± 81 mm^3 | Tumor volume, Day 14 [1, 4]: 759 ± 81 mm^3 | Tumor volume, Day 14 [1, 5]: 729 ± 77 mm^3 | Tumor volume, Day 17 [1, 3]: 1354 ± 147 mm^3 | Tumor volume, Day 17 [1, 4]: 1346 ± 109 mm^3 | Tumor volume, Day 17 [1, 5]: 1202 ± 118 mm^3 | Tumor volume, Day 21 [1, 3]: 1899 ± 155 mm^3 | Tumor volume, Day 21 [1, 4]: 1867 ± 130 mm^3 | Tumor volume, Day 21 [1, 5]: 1630 ± 126 mm^3 | TGI (tumor growth inhibition) [1, 3]: 19% | TGI (tumor growth inhibition) [1, 4]: 21% | TGI (tumor growth inhibition) [1, 5]: 31%

C[C@]12CCC(=O)C=C1CC[C@@H]1[C@@H]2[C@@H](O)C[C@@]2(C)[C@H]1CC[C@]2(O)C(=O)CO [Hydrocortisone]
Equivalent Potency [2]: 20 mg

C[C@H]1C[C@@H]2[C@H]([C@@H](O)C[C@@]3(C)[C@H]2CC[C@]3(O)C(=O)COC(=O)CCC(=O)O)[C@@]2(C)C=CC(=O)C=C12 [Methylprednisolone sodium succinate]
Equivalent Potency [2]: 4 mg

C[C@]12C=CC(=O)C=C1CC[C@@H]1[C@@H]2[C@@H](O)C[C@@]2(C)[C@H]1CC[C@]2(O)C(=O)CO [Prednisolone]
Equivalent Potency [2]: 5 mg
